# Test results from patent publication US11694765B2, “Interrogatory cell-based assays for identifying drug-induced toxicity markers” (Berg LLC, priority 2012, dated 2023).
# Assays:
# melanoma cell = conditions: in the presence of VEGF; cited from earlier work
# normal fibroblast = conditions: co-administration with VEGF; cited from earlier work
# [1] = tested on: GPAT1 and TAZ in hyperglycemia conditioned cardiomyocytes; experiment: Western blotting of GPAT1 and TAZ protein expression in cardiomyocytes; assay type: cell-based, human; conditions: diabetic drug plus rescue molecule (T+R)
# Description: (§1) Human cardiomyocytes were subject to conditions simulating an diabetic environment experienced by the disease-relevant cells in vivo. Specifically, the cells were exposed to hyperglycemic conditions and hyperlipidemia conditions. The hyperglycemic condition was induced by culturing cells in media containing 22 mM glucose. The hyperlipidemia condition was induced by culturing the cells in media containing 1 mM L-carnitine, 0.7 mM Oleic acid and 0.7 mM Linoleic acid.
# The cell model comprising the above-mentioned cells, wherein the cells were exposed to each condition described above, was additionally “interrogated” by exposing the cells to an “environmental perturbation” by treating with a diabetic drug (T) which is known to cause cardiotoxicity, a rescue molecule (R) or both the diabetic drug and the rescue molecule (T+R). Specifically, the cells were treated with diabetic drug; or treated with rescue molecule Coenzyme Q10 at 0, 50 μM, or 100 μM; or treated with both of the diabetic drug and the rescue molecule Coenzyme Q10.
# Protein expression levels of GPAT1 and TAZ for each condition and each treatment were tested with western blotting.
# [2] = tested on: human mitochondrial energy metabolism genes in diabetic cardiomyocytes; experiment: Transcriptional profiling of mitochondrial energy metabolism genes in diabetic cardiomyocytes; assay type: cell-based; conditions: diabetic drug plus rescue molecule (T+R) vs untreated (UT)
# Description: as §1, with “acid. […]” for “acid.”
# Cell samples from each condition with each perturbation treatment were collected at various times following treatment, including after 6 hours of treatment. For certain conditions, media samples were also collected and analyzed.
# iProfiling of changes in total cellular protein expression by quantitative proteomics was performed for cell and media samples collected for each condition and with each “environmental perturbation”, i.e, diabetic drug treatment, Coenzyme Q10 treatment or both, using the techniques described above in the detailed description. […] Following data collection (Ct), the final fold change over control was determined using the δCt method as outlined in manufacturer's protocol. […] Functional assays such as Oxygen consumption rate OCR were measured by employing the Seahorse analyzer essentially as recommended by the manufacturer. […]
# [3] = tested on: hyperglycemia conditioned cardiomyocytes; experiment: Mitochondrial oxygen consumption rate (Seahorse analyzer); assay type: cell-based, human; conditions: diabetic drug plus rescue molecule (T1+R or T2+R)
# Description: as §1, with “acid. […]” for “acid.”
# iProfiling of changes in total cellular protein expression by quantitative proteomics was performed for cell and media samples collected for each condition and with each “environmental perturbation”, i.e, diabetic drug treatment, Coenzyme Q10 treatment or both, using the techniques described above in the detailed description. […] Following data collection (Ct), the final fold change over control was determined using the δCt method as outlined in manufacturer's protocol. […] Functional assays such as Oxygen consumption rate OCR were measured by employing the Seahorse analyzer essentially as recommended by the manufacturer. OCR was recorded by the electrodes in a 7 μl chamber created with the cartridge pushing against the seahorse culture plate. […]
smiles,measurement,setting,value
COC1=C(OC)C(=O)C(C/C=C(\C)CC/C=C(\C)CC/C=C(\C)CC/C=C(\C)CC/C=C(\C)CC/C=C(\C)CC/C=C(\C)CC/C=C(\C)CC/C=C(\C)CCC=C(C)C)=C(C)C1=O [Coenzyme Q10],level of Bcl2,melanoma cell,decreased
same,levels of Bcl2,normal fibroblast,no effect
same,protein expression level of GPAT1,[1],normalized
same,protein expression level of TAZ,[1],normalized
same,transcriptional network and expression of human mitochondrial energy metabolism genes,[2],normalize gene expression and transcription
same,transcriptional network and expression of human mitochondrial energy metabolism genes,[2]; listed as rescue molecule,normalizes gene expression
same,mitochondrial oxygen consumption rate (OCR),[3],normalized
same,mitochondrial oxygen consumption rate (OCR),[3]; listed as rescue molecule,normalizes OCR
